One data set concerns Male rats. Put plainly: Diuretic and natriuretic action in anesthetized rats (urine collected via bladder cannula). In kind it is in vivo, rat. The following applies: 1.21 μ mole, group V. The procedure: To keep the respiratory tract open, a tracheal cannula (PE-240 Clay-Adams) was inserted into the trachea. An arterial cannula (PE-50) was inserted into a femoral artery for measurement of the blood pressure, and a venous cannula was inserted into a femoral vein for the administration of Ringer's solution. 1.2 ml of Ringer's solution was injected for ten minutes, and subsequently, was constantly infused at a flow rate of 1.2 ml/hour.
A bladder cannula made of silastic tube with an inner diameter of 0.02 inches and an outer diameter of 0.037 inches was inserted into the bladder, and via the cannula, a urine sample was collected into a test tube. The collection of urine was carried out for 30 minutes before administration of the test compound, and every five minutes after the administration.
The control group (group I) was administered 50 μl of physiological saline containing only bacitracin.
Groups I to IV each consisted of three animals, and group V consisted of four animals.

A further data set in a line: Solubility in solvents. In kind it is physicochemical.
A short description of data set [1]: Immunogenicity and toxicity on administration. In kind it is in vivo.

Experimental findings from US4748232A, “Peptide production and use thereof” (Suntory Limited, priority 1983, dated 1988) are described below.

For the compound `NS(=O)(=O)c1cc(C(=O)O)c(NCc2ccco2)cc1Cl` [Furosemide, furosemide], the “Urine volume A” value in the data set on Male rats (A: sample collected 5 minutes after administration) is 167 ± 28 µL/min. The “Urine volume B” value with Male rats (B: sample collected 30 minutes before administration) came out at 8.6 ± 1.9 µL/min.

As to `CC[C@H](C)[C@@H]1NC(=O)[C@H](CCCNC(=N)N)NC(=O)[C@H](CC(=O)O)NC(=O)[C@H](CCSC)NC(=O)[C@H](CCCNC(=N)N)NC(=O)CNC(=O)CNC(=O)[C@H](Cc2ccccc2)NC(=O)[C@@H](NC(=O)[C@H](CO)NC(=O)[C@H](CO)NC(=O)[C@H](CCCNC(=N)N)NC(=O)[C@H](CCCNC(=N)N)NC(=O)[C@H](CC(C)C)NC(=O)[C@@H](N)CO)CSSC[C@@H](C(=O)N[C@@H](CC(N)=O)C(=O)N[C@@H](CO)C(=O)N[C@@H](Cc2ccccc2)C(=O)N[C@@H](CCCNC(=N)N)C(=O)N[C@@H](Cc2ccc(O)cc2)C(=O)O)NC(=O)CNC(=O)[C@H](CC(C)C)NC(=O)CNC(=O)[C@H](CO)NC(=O)[C@H](CCC(N)=O)NC(=O)[C@H](C)NC(=O)CNC1=O` [α-hANP, α-human atrial natriuretic polypeptide], the Solubility in solvents result is on record as “insoluble” in “Solubility in solvents” (ethyl acetate, butyl acetate, ethyl ether, hexane, petroleum ether, benzene, and chloroform); “partially” in “Solubility in solvents” (methanol, and acetic acid); “soluble” in “Solubility in solvents” (water). Besides, the toxicity result in data set [1] (gradually hydrolized in a body providing the L-amino acids) is on record as “little toxicity”. Also, the anaphylaxis shock result in data set [1] (repeated administration) is recorded as “does not cause anaphylaxis shock”. Moreover, in data set [1] (repeated administration), the production of antibodies entry was “does not stimulate production of antibodies”.
